Assay [1] has as its target T1, Amyloid beta 40 (Aβ40) aggregates (Homo sapiens, UniProt P05067).
T1 construct: gene APP; synthetic amyloid-β peptide (1-40), aggregated
Description: FRET with CRANAD-5 on Aβ[…] aggregates; apparent Kd printed in Results. It counts as binding. Particulars: cited from earlier work.

For assay [2], the target named is T1, Amyloid beta 40 (Aβ40) aggregates. As to the kind of experiment: fluorescence titration of Aβ[…] aggregates, one-site binding fit.

T1 sequence (P05067 672-711 limits assumed): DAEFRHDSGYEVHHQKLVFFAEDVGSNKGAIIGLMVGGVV

Regarding `CN(C)c1ccc(/C=C/C2=CC(/C=C/c3ccc(N(C)C)cc3)=[O+][B-](F)(F)O2)cc1` [CRANAD-2], the Kd in assay [1] was 38 nM. The compound `CN(C)c1ccc(/C=C/C(=O)/C=C(O)/C=C/c2ccc(N(C)C)cc2)cc1` [CRANAD-5] came in with a Kd in assay [2] of 10.5 ± 2.5 nM.

The values are drawn from PMC3084834, “Non-Conjugated Small Molecule FRET for Differentiating Monomers from Higher Molecular Weight Amyloid Beta Species” (PLoS ONE, 2011).
